Experimental data from patent US20210023065A1, “AMPHIPHILIC THIOL COMPOUNDS AND USES THEREOF” (THE REGENTS OF THE UNIVERSITY OF CALIFORNIA, priority 2018, published 2021).

Tests used:
[1] = tested on: Gα(i); assay: Acyl resin-assisted capture detection of Gα(i) palmitoylation in HeLa cells; assay type: cell-based; conditions: 1.25 μmol/10^7 cells, relative to vehicle
Protocol: (§1) HeLa cells were grown to confluency in 10 cm plates. Stock solutions of compounds were prepared in DMSO as before and diluted to the final indicated concentration in 5.5 mL of OptiMEM media before adding to cells. Cells were incubated at 37° C. for 20 min and then media removed and 3 mL of HBSS added to each plate. Cells were detached using a cell scraper, pelleted by centrifugation at 1,000 rcf for 5 min and the pellet processed using a CAPTUREome S-Palmitoylated Protein Kit (Badrilla, UK) according to the manufacturer's protocol. Samples were resolved by electrophoresis using 4-20% SDS-polyacrylamide gels (Bio-Rad) under denaturing and reducing conditions. Proteins were then electrotransferred to a PVDF membrane (Bio-Rad). […]
(§2) Assays were performed in 3 biological replicates. […] Western blots were analyzed using ImageJ^1. […]

[2] = molecular target: T1, CD44 (Homo sapiens, UniProt P16070); assay: Acyl resin-assisted capture detection of CD44 palmitoylation in HeLa cells; assay type: cell-based; conditions: 1.25 μmol/10^7 cells, relative to vehicle
T1 construct: we detected the palmitoylation levels of eight known palmitoylated proteins after treatment with 1; endogenous in cells; host or cells: HeLa
Protocol: as §1, §2

[3] = molecular target: T2, flotillin-2 (Homo sapiens, UniProt Q14254); assay: Acyl resin-assisted capture detection of flotillin-2 palmitoylation in HeLa cells; assay type: cell-based; conditions: 1.25 μmol/10^7 cells, relative to vehicle
T2 construct: we detected the palmitoylation levels of eight known palmitoylated proteins after treatment with 1; endogenous in cells; host or cells: HeLa
T2 sequence (Q14254 1-428): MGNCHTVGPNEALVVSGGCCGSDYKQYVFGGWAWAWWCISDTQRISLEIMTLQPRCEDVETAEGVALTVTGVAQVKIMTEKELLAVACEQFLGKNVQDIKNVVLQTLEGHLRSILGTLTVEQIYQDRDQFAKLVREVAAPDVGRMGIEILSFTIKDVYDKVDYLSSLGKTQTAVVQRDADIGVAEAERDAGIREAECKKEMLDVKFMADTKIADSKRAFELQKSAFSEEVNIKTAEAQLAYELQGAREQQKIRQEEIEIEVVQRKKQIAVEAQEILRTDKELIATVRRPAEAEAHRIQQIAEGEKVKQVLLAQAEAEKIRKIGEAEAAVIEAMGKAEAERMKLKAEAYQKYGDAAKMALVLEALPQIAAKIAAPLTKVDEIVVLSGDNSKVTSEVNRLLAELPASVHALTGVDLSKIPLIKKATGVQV
Protocol: as §1, §2

[4] = molecular target: T3, EGFP-HRas (Homo sapiens, UniProt P01112); assay: Live-cell imaging of EGFP-HRas localization in HeLa cells; assay type: cell-based
T3 construct: host or cells: HeLa
Protocol: Imaging was performed on an Axio Observer Z1 inverted microscope (Carl Zeiss Microscopy Gmb, Germany) with Yokogawa CSU-X1 spinning disk confocal unit using a 63×, 1.4 NA oil immersion or 20×, 0.8 NA objective to an ORCA-Flash4.0 V2 Digital CMOS camera (Hamamatsu, Japan). For live cell imaging, an incubation chamber with temperature and CO2 controllers (World Precision Instruments) was utilized. Fluorophores were excited with s diode laser (488 nm; 30 mW). Images were acquired using Zen Blue software (Carl Zeiss) and processed using Image J.^1
HeLa cells were plated at 40,000 cells/well in an 8-well Lab-Tek chamber slide (ThermoFisher) and allowed to adhere overnight. Cells were transfected with mEGFP-HRas or mEGFP-KRas4b using Lipofectamine 2000 (ThermoFisher) according to the manufacturer's protocol. 50 mM stocks of compounds 1 and 2 were prepared by dissolving the solid compound in DMSO containing 100 mM tris(2-S 3 carboxyethyl)phosphine hydrochloride (TCEP) as a preservative. From these stocks, a solution of 200 μM [1 or 2] (with 400 μM TCEP), or 400 μM TCEP was prepared in OptiMEM media. Before imaging, cells were exchanged into OptiMEM media. The diluted solutions were added to the indicated final concentration within individual wells of the chamber slide and cells imaged while maintaining 37° C., 5% CO2 in the incubation chamber. Images were acquired in 6 different locations across a minimum of 2 independent experiments. […] An unpaired t test was performed to determine the significance of the means before and after treatment.

[5] = tested on: AKT1 (pS473); assay: Detection of AKT1 phosphorylation in T24 cells (western blot); assay type: cell-based, human; conditions: T24 cells (oncogenic HRas mutation), 1.25 μmol/10^7 cells, 1 h
Protocol: (§3) T24 cells were grown to confluency in 6 cm plates. Stock solutions of compounds were prepared in DMSO as before and diluted to the final indicated concentration in 2 mL of OptiMEM media before adding to cells. Cells were incubated at 37° C. for 1 h and then media removed and 1.5 mL of HBSS added to each plate. Cells were detached using a cell scraper, pelleted by centrifugation at 1,000 rcf for 5 min and the pellet processed using MPER™ Mammalian Protein Extraction Reagent (ThermoFisher) with the addition of Halt Protease Inhibitor Cocktail (ThermoFisher) and 1 mM sodium orthovanadate. Samples were resolved by electrophoresis using 4-20% SDS-polyacrylamide gels (Bio-Rad) under denaturing and reducing conditions. Proteins were then electrotransferred to a PVDF membrane (Bio-Rad). The membrane was blocked with 3% BSA and then subjected to immunoblot analysis using AKT/MAPK Signaling Pathway Antibody Cocktail (ab151279) (Abcam) and secondary goat anti-rabbit IgG-HRP (sc-2030) (Santa Cruz Biotechnology). Chemiluminescent detection was performed by using SuperSignal West Pico PLUS chemiluminescent substrate (ThermoFisher) according to the manufacturer's instructions.
(§4) Assays were performed in 3 biological replicates. Western blots were analyzed using ImageJl. The intensity of the protein band in each condition was normalized to the intensity of the corresponding loading control (Rab11). […]

[6] = tested on: ERK1/2 (pY204/pY187); assay: Detection of ERK1/2 phosphorylation in T24 cells (western blot); assay type: cell-based, human; conditions: T24 cells (oncogenic HRas mutation), 1.25 μmol/10^7 cells, 1 h
Protocol: as §3, §4

T3 sequence (P01112 1-186 limits assumed): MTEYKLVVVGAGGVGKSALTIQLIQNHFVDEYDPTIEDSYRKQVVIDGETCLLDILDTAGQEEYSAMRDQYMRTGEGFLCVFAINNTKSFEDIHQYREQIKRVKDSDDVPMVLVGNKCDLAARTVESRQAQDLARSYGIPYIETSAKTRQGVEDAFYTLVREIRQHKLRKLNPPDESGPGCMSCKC
T1 sequence (P16070 21-742): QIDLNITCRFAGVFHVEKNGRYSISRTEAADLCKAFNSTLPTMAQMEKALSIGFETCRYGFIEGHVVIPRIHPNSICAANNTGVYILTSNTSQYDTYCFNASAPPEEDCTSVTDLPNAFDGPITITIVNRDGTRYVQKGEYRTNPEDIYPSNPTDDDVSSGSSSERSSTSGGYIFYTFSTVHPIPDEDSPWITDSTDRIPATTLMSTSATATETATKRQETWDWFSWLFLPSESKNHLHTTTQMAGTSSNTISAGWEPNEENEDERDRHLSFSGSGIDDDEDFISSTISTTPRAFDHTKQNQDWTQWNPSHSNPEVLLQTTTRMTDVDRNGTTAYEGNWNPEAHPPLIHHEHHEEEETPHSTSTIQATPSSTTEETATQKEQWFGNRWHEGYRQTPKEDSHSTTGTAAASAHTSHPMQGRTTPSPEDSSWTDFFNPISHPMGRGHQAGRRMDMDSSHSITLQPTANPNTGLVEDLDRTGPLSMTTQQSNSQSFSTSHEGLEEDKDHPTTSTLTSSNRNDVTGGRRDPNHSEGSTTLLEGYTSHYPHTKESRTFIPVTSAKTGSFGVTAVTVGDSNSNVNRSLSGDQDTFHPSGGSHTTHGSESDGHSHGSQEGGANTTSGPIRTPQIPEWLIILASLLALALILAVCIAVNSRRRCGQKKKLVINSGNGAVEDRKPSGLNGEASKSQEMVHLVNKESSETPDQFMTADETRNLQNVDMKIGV

reduction of palmitoylation level of CD44 [2]: > 80%
reduction of palmitoylation level of flotillin-2 [3]: 19-40%
Compound: CCCCCCCCNC(=O)[C@@H](N)CS [compound 1, H2N-L-Cys-Oct]
reduction of palmitoylation level of Gα(i) [1]: > 80%
change in plasma membrane protein localization, statistical analysis of several hundred cells ([4]; EGFP-HRas transfected HeLa cells, before vs after treatment): significant change in plasma membrane protein localization
EGFP-HRas localization at the plasma membrane (fluorescence) ([4]; HeLa cells, 1.25 μmol/10^7 cells, 20 min): EGFP-HRas localization at the plasma membrane decreased
AKT1 phosphorylation [5]: near complete abrogation
ERK1/2 phosphorylation [6]: near complete abrogation
